Values after ≈ are worked out from the molar mass of the structure shown. Where two headings read alike, the source gives them in different places.
How the values were obtained:
Type in all cases: cell-based
[1] = tested on: LP Bacteria in form of biofilm; experiment: Effect of additives (cranberries, ascorbic acid) on Bacteria in form of biofilm survival and growth
From the text: High vaginal pH is associated with an increase of vaginal pathogens and the acidity of the vagina has long been understood to be a protective mechanism against colonization of anaerobes pathogens while creating a favourable environment for the lactobacilli to thrive. Examining the effect of different additives (cranberries and ascorbic acid) on Bacteria in form of biofilm LP (as part of a small scale). […] The aim is to add one of these additives along with the Bacteria in form of biofilm in the suppository composition. As such, their effect on Bacteria in form of biofilm survival and growth was tested.

Lactobacillus jensenii = experiment: Antibiotic MIC strip assay, planktonic LJ; details: for MIC: Lactobacillus jensenii
Protocol: (§1) For antibiotic assay, and overnight culture was diluted to an optical start density (OD) of 0.13. […] Plates were incubated at 37° C. for 24 h before minimum inhibitory concentration (MIC) value were determined.

Lactobacillus rhamnosus = experiment: Antibiotic MIC strip assay, planktonic LRh
Protocol: as §1

Lactobacillus gasseri = experiment: Antibiotic MIC strip assay, planktonic LG; details: for MIC: Lactobacillus gasseri
Protocol: as §1

Lactobacillus crispatus = experiment: Antibiotic MIC strip assay, planktonic LCr; details: for MIC: Lactobacillus crispatus
Protocol: as §1

Lactobacillus iners = experiment: Antibiotic MIC strip assay, planktonic LI
Protocol: as §1

[2] = planktonic LJ, MIC strips, 24 h 37° C., read-out: MIC
[3] = Lacticaseibacillus rhamnosus, planktonic LRh, Table 7, read-out: MIC
[4] = Lacticaseibacillus rhamnosus, planktonic LRh, read-out: MIC
[5] = planktonic LG, MIC strips, 24 h 37° C., read-out: MIC
[6] = planktonic LCr, MIC strips, 24 h 37° C., read-out: MIC
[7] = planktonic LI, MIC strips, 24 h 37° C., read-out: MIC

SMILES | MIC (Lactobacillus jensenii; [2]) [mg/L] | MIC (Lactobacillus rhamnosus; [3]) [mg/L] | MIC (Lactobacillus rhamnosus; [4]) [mg/L] | MIC (Lactobacillus gasseri; [5]) [mg/L] | MIC (Lactobacillus crispatus; [6]) [mg/L] | MIC (Lactobacillus iners; [7]) [mg/L] | further results
O=C1O[C@H]([C@@H](O)CO)C(O)=C1O [AA, Ascorbic Acid] | – | – | – | – | – | – | effect of addition of supplement on Bacteria in form of biofilm growth [1]: did not affect
O=C(O)c1cn(C2CC2)c2cc(N3CCNCC3)c(F)cc2c1=O [CIP, ciprofloxacin] | > 256 | 2 (≈ 6.04 µM) | 0.25 (≈ 0.754 µM) | > 256 | > 256 | – | susceptibility of planktonic bacteria to antibiotic (Lactobacillus jensenii; planktonic LJ): not susceptible; susceptibility of planktonic bacteria to antibiotic (Lactobacillus gasseri; planktonic LG): full resistance; susceptibility of planktonic bacteria to antibiotic (Lactobacillus crispatus; planktonic LCr): not susceptible
CN[C@H](CC(C)C)C(=O)N[C@H]1C(=O)N[C@@H](CC(N)=O)C(=O)N[C@H]2C(=O)N[C@H]3C(=O)N[C@H](C(=O)N[C@H](C(=O)O)c4cc(O)cc(O)c4-c4cc3ccc4O)[C@H](O)c3ccc(c(Cl)c3)Oc3cc2cc(c3O[C@@H]2O[C@H](CO)[C@@H](O)[C@H](O)[C@H]2O[C@H]2C[C@](C)(N)[C@H](O)[C@H](C)O2)Oc2ccc(cc2Cl)[C@H]1O [VAN, vancomycin] | – | – | – | – | – | – | MIC (Lactobacillus jensenii; 24 h): 1.5 mg/L (≈ 1.04 µM); MIC (Lactobacillus rhamnosus; Lacticaseibacillus rhamnosus): > 256 mg/L; MIC (Lactobacillus rhamnosus; planktonic LRh, Table 7): >256 mg/L; MIC (Lactobacillus gasseri; 24 h): 1.5 mg/L (≈ 1.04 µM); MIC (Lactobacillus crispatus; 24 h): 1.5 mg/L (≈ 1.04 µM); MIC (Lactobacillus iners; 24 h): 4 mg/L (≈ 2.76 µM)

Continued, in another order:

MIC (Lactobacillus jensenii; [2]) [mg/L] | MIC (Lactobacillus rhamnosus; [3]) [mg/L] | MIC (Lactobacillus rhamnosus; [4]) [mg/L] | MIC (Lactobacillus gasseri; [5]) [mg/L] | MIC (Lactobacillus crispatus; [6]) [mg/L] | MIC (Lactobacillus iners; [7]) [mg/L] | SMILES | further results
8 (≈ 21.1 µM) | 4 (≈ 10.6 µM) | 4 (≈ 10.6 µM) | 4 (≈ 10.6 µM) | 4 (≈ 10.6 µM) | 64 (≈ 169 µM) | CC1(C)S[C@@H]2[C@H](NC(=O)C(C(=O)O)c3ccccc3)C(=O)N2[C@H]1C(=O)O (stereo partly drawn) [CB, carbenicillin] | –
2 (≈ 3.26 µM) | 2 (≈ 3.26 µM) | 2 (≈ 3.26 µM) | 2 (≈ 3.26 µM) | 2 (≈ 3.26 µM) | 16 (≈ 26.1 µM) | CO[C@@H]1[C@@H](OC(N)=O)[C@@H](O)[C@H](Oc2ccc3c(O)c(NC(=O)c4ccc(O)c(CC=C(C)C)c4)c(=O)oc3c2C)OC1(C)C [NVB, novobiocin] | –
